Measured values reported in patent publication US20060241038A1, “Therapeutic agent for Abeta related disorders” (Eisai Co., Ltd., priority 2005, published 2006).
“Also recorded” adds a separate entry of the source.

How the values were obtained:
[1] = Thioflavin T (ThT) analysis for aggregation ability of each Aβ; assay type: physicochemical; details: each Aβ alone, in 10 mM HEPES containing 0.9% NaCl, 37° C.; 10 μM ThT
Procedure: (§1) After addition of ThT (SIGMA) at a final concentration of 10 μM, each sample was transferred to a 96-well black plate (Corning) and stirred for 10 seconds, followed by measuring the fluorescence intensity for each sample. Using a fluorospectrometer (LJL Biosystems), the fluorescence intensity at a wavelength of 490 nm was measured with an excitation light of 450 nm wavelength.

[2] = Circular dichroism (CD) analysis of each Aβ (secondary structure); assay type: physicochemical; details: each Aβ alone, 37° C., until 5 days
Procedure: The solution was then dispensed in 10 to 30 μL aliquots into 500 μL polypropylene microtubes and stored at −80° C. until use.
The Aβ solutions in HFIP were evaporated using a centrifugal evaporator (Tomy Seiko Co., Ltd., CC-180 and ST-10) to remove HFIP and then dissolved in a solution of 10 mM HEPES containing 0.9% NaCl. Each of the resulting Aβ solution was incubated at 37° C. and measured for their CD at different time points.
The Aβ-containing solutions were injected into washed quartz cells with an optical path length of 1 or 2 mm and measured for their CD. Until measurement, the quartz cells were allowed to stand at 37° C., 100% humidity.

[3] = target: T1, Aβ1-42 (Homo sapiens, UniProt P05067); experiment: ThT fluorescence of 1:3 mixtures of Aβ1-42 and each Aβ; assay type: biochemical; details: Aβ1-42 mixed with the Aβ at a ratio of 1:3
T1 construct: purchased Peptide Institute, Inc. 4349-v
Procedure: as §1

[4] = target: T1, Aβ1-42; experiment: CD measurement on a 1:3 mixture of Aβ1-42 and each Aβ (β-sheet structure formation in Aβ1-42); assay type: biochemical; details: 5 μM Aβ1-42 mixed with 15 μM of the Aβ (1:3)
Procedure: The solution was then dispensed in 10 to 30 μL aliquots into 500 μL polypropylene microtubes and stored at −80° C. until use. The Aβ solutions in HFIP were evaporated using a centrifugal evaporator (Tomy Seiko Co., Ltd., CC-180 and ST-10) to remove HFIP and then dissolved in a solution of 10 mM HEPES containing 0.9% NaCl. Each of the resulting Aβ solution was incubated at 37° C. and measured for their CD at different time points. […] The Aβ-containing solutions were injected into washed quartz cells with an optical path length of 1 or 2 mm and measured for their CD. Until measurement, the quartz cells were allowed to stand at 37° C., 100% humidity.

[5] = test system: Aβ42 production; details: reported in 2001 (refs 13, 14); cited from earlier work
[6] = test system: Aβ40; experiment: ELISA quantification of Aβ40 in rat fetal brain-derived nerve cell culture medium; assay type: cell-based; details: 3 days culture; effect stated as concentration-dependent (FIGS. 7-1 to 7-3)
Procedure: (§2) At 4 days after initiation of culturing, the test compounds synthesized in the preceding Examples, i.e., Compound A, Compound B (CAS#501907-79-5) or Compound C (CAS#670250-40-5) were added as follows. The medium was entirely removed and replaced by Neurobasal/B27/2ME free from 2-ME (i.e., Neurobasal/B27) in a volume of 11 ml/dish. The test compounds (Compounds A, B and C) in DMSO were diluted with Neurobasal/B27 to 100-fold of their final concentration and added in a volume of 110 μl/dish, followed by sufficient mixing. The final DMSO concentration was kept at 1% or below. The control group received DMSO alone.
(§3) After addition of the test compounds, the cells were cultured for 3 days and the whole volume of the medium was collected from each dish. The resulting medium was provided as a MALDI-TOF/MS sample.
(§4) A part of each medium collected in Example 7(3) aforementioned was used as an ELISA sample. Each sample was not diluted for Aβ42 measurement, while it was diluted 5-fold for Aβ40 measurement with a diluent attached to an ELISA kit before being subjected to ELISA.
(§5) Aβ ELISA was performed using a Human Amyloid beta (1-42) Assay Kit (#17711, IBL Co., Ltd.) and a Human Amyloid beta (1-40) Assay Kit (#17713, IBL Co., Ltd.) in accordance with the kit's recommended protocol (the procedures described in the attached document), provided that a calibration curve for each Aβ was prepared using beta-amyloid peptide 1-42 (rat) or beta-amyloid peptide 1-40 (rat) (Calbiochem. #171596[Aβ4 2] or #171593[Aβ4 0]). The results were expressed as percentages (% of Control) relative to the Aβ concentration in the medium from the control group (untreated group, Control).

[7] = test system: Aβ42; experiment: ELISA quantification of Aβ42 in rat fetal brain-derived nerve cell culture medium; assay type: cell-based; details: 3 days culture; effect stated as concentration-dependent (FIGS. 7-1 to 7-3)
Procedure: as §2, §3, §4, §5

[8] = test system: Aβ fragments in rat fetal brain-derived nerve cell culture medium; experiment: MALDI-TOF/MS analysis of Aβ in rat fetal brain-derived nerve cell culture medium; assay type: cell-based; details: 3 days culture with various concentrations of test compound; normalized to internal standard Aβ12-28
Procedure: In the same manner as shown in Example 3 above, brain cortex-derived nerve cells were prepared from Wistar rats at 18 days of embryonic age. The nerve cell suspension was diluted with a medium and seeded onto 10 cm polystyrene culture dishes pre-coated with poly-D-lysine (BIOCOAT® cell environments Poly-D-lysine cell culture dish, Becton Dickinson Labware) in a volume of 15 ml/dish so as to give an initial cell density of 3.5×10^5 cells/cm^2. After the seeded cells were cultured for 1 day in an incubator with 5% CO2, 95% air at 37° C., the medium was entirely replaced by fresh Neurobasal/B27/2ME, followed by culturing for an additional 3 days.
as §2, §3
Each sampled culture supernatant was collected in a 15 mL centrifuge tube and supplemented with 400 μL of a 25-fold concentrated solution of protease inhibitor cocktail Complete (Roche Diagnostics GmbH), followed by centrifugation at 4° C. at 3,000 rotations/minute for 5 minutes to sediment cell fragments. The resulting supernatant was transferred to another 15 mL centrifuge tube and supplemented with synthetic Aβ12-28 (Bachem) as an internal standard at a final concentration of 2 nM, followed by addition of 5 μg anti-Aβ monoclonal antibody (clone name: 4G8, Signet Laboratories, Inc). Subsequently, 5 μL of Protein G plus Protein A Agarose (Oncogene Research Products) was added after being blocked at 4° C. with 2% BSA and washed with TBS buffer. Further, 3-[(3-cholamidopropyl)dimethylammonio]-1-propanesulfonate (CHAPS; SIGMA) was added to each tube at a final concentration of 1%, followed by mixing at 4° C. for 4 to 8 hours.
The Protein G plus Protein A Agarose holding the immunoprecipitated Aβ fragments adsorbed thereto was collected from each tube by centrifugation at 4° C. at 3,000 rotations/minute for 5 minutes and transferred to a 1.5 mL microtube. The Protein G plus Protein A Agarose was washed twice with 500 μL of 140 mM NaCl, 0.1% N-Octyl Glucoside (NOG; Loche Diagnostics GmbH), 10 mM Tris-HCl, pH 8, once with 500 μL of Tris-HCl, 10 mM, pH 8, and then once with 500 μL of ion exchanged water. After washing with ion exchanged water, as much fluid as possible was removed from each tube and Aβs were eluted with 5 μL of 0.2% NOG, 2.4% trifluoroacetic acid (TFA; PIERCE) and 48.7% acetonitrile (HPLC grade, Wako Pure Chemical Industries, Ltd.). Independently of this, α-cyano-4-hydroxy-cinnamic acid (CHCA; BRUKER DALTONICS) was dissolved in 0.2% NOG, 0.1% TFA and 33% acetonitrile at a saturating concentration and supplemented with human insulin (Peptide Institute, Inc.) and angiotensin III (Peptide Institute, Inc.) as mass standards at fmal concentrations of 167 nM and 56 nM, respectively, for use as a matrix solution. Each Aβ eluate (0.5 μL) and the matrix solution (0.5 μL) were spotted at the same position on a sample plate for mass spectrometry and air-dried at room temperature, followed by analysis with a mass spectrometer Voyager DE (Applied Biosystems). All mass data detected were corrected for the mass of human insulin and angiotensin III (5807.6 and 931.1, respectively). […]

Row | Compound | fluorescence intensity of ThT (content of β-sheet structure) with incubation time [1] | Aβ40 production (ELISA, % of Control) [6] | Aβ42 production (ELISA, % of Control) [7] | Aβ1-37 or Aβ11-37 production (MALDI-TOF/MS) [8] | Aβ1-40 or Aβ11-40 production (MALDI-TOF/MS) [8] | Aβ1-42 or Aβ11-42 (peak intensity, MALDI-TOF/MS) [8] | Aβ1-38 or Aβ11-38 production (MALDI-TOF/MS) [8] | also measured
1 | Aβ1-42: human-type Aβ1-42 (Peptide Institute, Inc., Prod. # 4349-v); amyloid β peptide | increased with increasing incubation time | – | – | – | – | – | – | –
2 | Aβ1-40: human-type Aβ1-40 (Peptide Institute, Inc., Prod. # 4307-v); amyloid β peptide | no increase in the fluorescence intensity | – | – | – | – | – | – | likelihood of forming a β-sheet structure (CD), compared with Aβ1-42 [2]: less likely to form a β-sheet structure than Aβ1-42; increase in ThT fluorescence intensity (β-sheet structure formation) of Aβ1-42 compared to Aβ1-42 alone [3]: the formation of β-sheet structure was inhibited; also recorded: the increase in the fluorescence intensity was inhibited; effect on β-sheet structure formation in Aβ1-42 (CD) [4]: weaker than that of Aβ1-37 or Aβ1-38; time after mixing with Aβ1-42 at which a CD spectrum indicative of β-sheet structure was detected ([4]; 37° C., Aβ1-42+buffer showed β-sheet from 1 day): 2 days
3 | CC(C)Cc1ccc(C(C)C(=O)O)cc1 (stereo not shown) [ibuprofen] | – | – | – | – | – | – | – | effect on Aβ42 production [5]: selectively inhibit Aβ42 production
4 | CNC(=O)n1ccc2cc(Oc3ccnc(NC(=O)N[C@H](CO)C(=O)N4CCCCC4)c3)ccc21 [Compound C, 5-{2-{3-[(1R)-1-hydroxymethyl-2-oxo-2-piperidin-1-ylethyl]ureido}pyridin-4-yloxy}-1H-indole-1-carboxylic acid methylamide] | – | inhibited | inhibited | enhanced in a manner dependent on the concentration of Compound C | tended to be inhibited | no detectable change | – | Aβ1-39 or Aβ11-39 production (MALDI-TOF/MS) [8]: enhanced in a manner dependent on the concentration of Compound C
5 | N#Cc1ccc(NC(=O)NC(=N)Nc2ccc(Cl)cc2)cc1 [Compound B, N-{[(4-chlorophenyl)amino]iminomethyl}-N′-(4-cyanophenyl)urea] | – | inhibited | inhibited | enhanced in a manner dependent on the concentration of Compound B | inhibited in a manner dependent on the concentration of Compound B | no detectable change | enhanced in a manner dependent on the concentration of Compound B | –
6 | COc1cc(/C=C/C(=O)NCc2cccc(-c3ccccc3)c2)ccc1-n1cnc(C)c1 [Compound A, (E)-N-biphenyl-3-ylmethyl-3-[3-methoxy-4-(4-methylimidazol-1-yl)phenyl]acrylamide] | – | inhibited | inhibited | enhanced in a manner dependent on the concentration of Compound A | inhibited in a manner dependent on the concentration of Compound A | no detectable change | enhanced in a manner dependent on the concentration of Compound A | –
